For orientation: Ki means the equilibrium dissociation constant of an inhibitor or competing ligand from its target. Broadly, the IC50 is the concentration at which inhibition is half-maximal. Low values mean greater potency, high ones weaker potency.

Consider 16 molecules from patent US20240391936A1, “TETRAHYDROTHIENO PYRIDINE DERIVATIVES AS DDRS INHIBITORS” (CHIESI FARMACEUTICI S.P.A., priority 2021, published 2024).

The target of one assay is T1, DDR2 (Homo sapiens, UniProt Q16832).
T1 sequence (Q16832 22-855): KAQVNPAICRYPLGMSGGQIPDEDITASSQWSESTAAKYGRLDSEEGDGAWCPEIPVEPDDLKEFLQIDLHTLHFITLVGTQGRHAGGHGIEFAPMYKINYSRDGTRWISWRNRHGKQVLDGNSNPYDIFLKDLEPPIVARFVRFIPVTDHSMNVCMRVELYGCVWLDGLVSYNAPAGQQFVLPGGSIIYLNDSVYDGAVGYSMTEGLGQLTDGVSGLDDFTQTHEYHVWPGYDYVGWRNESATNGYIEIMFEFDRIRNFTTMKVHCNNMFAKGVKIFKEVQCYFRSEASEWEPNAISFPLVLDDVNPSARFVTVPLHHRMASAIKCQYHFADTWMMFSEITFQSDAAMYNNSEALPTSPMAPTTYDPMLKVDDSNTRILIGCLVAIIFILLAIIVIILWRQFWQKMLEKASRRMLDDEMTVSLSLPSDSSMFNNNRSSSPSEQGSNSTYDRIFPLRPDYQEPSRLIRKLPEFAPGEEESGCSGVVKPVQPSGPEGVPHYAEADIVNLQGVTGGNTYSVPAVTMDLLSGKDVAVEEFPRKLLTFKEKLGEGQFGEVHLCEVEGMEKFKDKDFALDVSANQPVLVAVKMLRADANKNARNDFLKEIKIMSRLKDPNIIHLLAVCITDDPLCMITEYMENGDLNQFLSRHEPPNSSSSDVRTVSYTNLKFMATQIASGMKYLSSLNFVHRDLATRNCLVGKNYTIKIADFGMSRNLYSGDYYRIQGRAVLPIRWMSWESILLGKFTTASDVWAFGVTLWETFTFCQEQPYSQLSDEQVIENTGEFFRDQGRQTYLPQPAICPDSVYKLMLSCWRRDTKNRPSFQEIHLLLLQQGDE
The assay can be described thus: DDR2 binding assay (LanthaScreen Europium Kinase Binding assay). Set-up: purchased Life Technologies. The following applies: binding assay, 5 nM DDR2, 10 nM Kinase Tracer 178; Ki from IC50 by Cheng-Prusoff; read-out: Ki DDR2. The method, boiled down:
(§1)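 TR-FRET tracer-displacement format: 665/615 nm emission ratio (340 nm excitation) gave IC50 by 4-parameter fit, then Ki via Cheng-Prusoff. Each kinase at 5 nM with 2 nM Eu-anti-GST antibody and Tracer 178 (DDR1 20 nM, DDR2 10 nM), 1 h, room temperature, HEPES pH 7.5 buffer.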

In assay [1] the target is T2, DDR1 (Homo sapiens, UniProt Q08345). In words: DDR1 cell based assay (PathHunter U2OS DDR1 assay). More on the design: host or cells: U2OS-DDR1 (PathHunter). The conditions noted are these: U2OS-DDR1 cells, bovine Type II Collagen 20 μg/ml. The method, boiled down:
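Receptor activation measured by enzyme-fragment complementation luminescence in engineered U2OS cells. Compound added 30 min before overnight challenge with 20 μg/ml bovine collagen II; data scaled between vehicle and collagen-stimulated controls, IC50 derived by four-parameter variable-slope fitting.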

For assay [2], the target named is T2, DDR1. The assay can be described thus: DDR1 binding assay (LanthaScreen Europium Kinase Binding assay). Set-up: purchased Carna Biosciences. The conditions noted are these: binding assay, 5 nM DDR1, 20 nM Kinase Tracer 178; Ki from IC50 by Cheng-Prusoff; read-out: Ki DDR1. The method, boiled down:
as §1

Molecules are shown by their SMILES.

T2 sequence (Q08345 19-913): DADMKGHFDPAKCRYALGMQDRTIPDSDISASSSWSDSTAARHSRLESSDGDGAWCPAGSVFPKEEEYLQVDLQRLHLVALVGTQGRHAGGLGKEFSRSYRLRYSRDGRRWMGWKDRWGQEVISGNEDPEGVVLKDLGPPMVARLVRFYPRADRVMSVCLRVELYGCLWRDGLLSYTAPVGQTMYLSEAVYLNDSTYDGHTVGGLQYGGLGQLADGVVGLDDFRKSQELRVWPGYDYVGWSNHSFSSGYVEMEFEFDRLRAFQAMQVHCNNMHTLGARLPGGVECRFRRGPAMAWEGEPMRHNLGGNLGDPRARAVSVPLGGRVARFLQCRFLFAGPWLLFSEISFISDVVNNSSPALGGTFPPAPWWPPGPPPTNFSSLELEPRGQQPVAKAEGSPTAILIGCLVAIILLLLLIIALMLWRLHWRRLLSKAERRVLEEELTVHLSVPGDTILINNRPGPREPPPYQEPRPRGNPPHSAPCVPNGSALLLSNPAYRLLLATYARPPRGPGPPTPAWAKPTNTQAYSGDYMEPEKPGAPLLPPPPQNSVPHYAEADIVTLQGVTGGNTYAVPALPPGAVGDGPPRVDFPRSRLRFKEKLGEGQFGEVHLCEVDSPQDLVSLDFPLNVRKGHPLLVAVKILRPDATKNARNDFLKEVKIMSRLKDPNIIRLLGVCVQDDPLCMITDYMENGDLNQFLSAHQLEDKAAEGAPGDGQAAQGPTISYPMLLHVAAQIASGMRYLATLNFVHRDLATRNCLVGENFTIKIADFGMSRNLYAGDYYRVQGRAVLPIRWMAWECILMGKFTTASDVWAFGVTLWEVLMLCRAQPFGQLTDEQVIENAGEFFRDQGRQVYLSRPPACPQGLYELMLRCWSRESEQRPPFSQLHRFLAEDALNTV

Take `O=C(Nc1cccc(C(F)(F)F)c1)c1csc2c1CCN(C(=O)c1cnc3ccc(OCCN4CCOCC4)cn13)C2` [Example 170, 6-(6-(2-morpholinoethoxy)imidazo[1,2-a]pyridine-3-carbonyl)-N-(3-(trifluoromethyl)phenyl)-4,5,6,7-tetrahydro thieno[2,3-c]pyridine-3-carboxamide]: the Ki at DDR2 and at DDR1 [2] was less than 25 nM in each case. On DDR1 [1], this molecule registered an IC50 of 25 to 50 nM.
Regarding `CN(C)Cc1ccc(NC(=O)c2csc3c2CCN(C(=O)c2cnn4ccncc24)C3)cc1C(F)(F)F` [Example 171, N-(4-((dimethylamino)methyl)-3-(trifluoromethyl)phenyl)-6-(pyrazolo[1,5-a]pyrazine-3-carbonyl)-4,5,6,7-tetrahydro thieno[2,3-c]pyridine-3-carboxamide], the Ki at DDR2 and at DDR1 [2] was less than 25 nM in each case. Further, the half-maximal inhibitory concentration (IC50) on DDR1 [1] lay within 50 to 80 nM.
For the molecule `O=C(Nc1cc(CN2CCOCC2)cc(C(F)(F)F)c1)c1csc2c1CCN(C(=O)c1cnn3ccncc13)C2` [Example 172, N-(3-(morpholinomethyl)-5-(trifluoromethyl)phenyl)-6-(pyrazolo[1,5-a]pyrazine-3-carbonyl)-4,5,6,7-tetrahydrothieno[2,3-c]pyridine-3-carboxamide], the inhibition constant Ki at DDR2 and on DDR1 [2] was less than 25 nM throughout. This molecule also showed an IC50 against DDR1 [1] of 25 to 50 nM.
As for `O=C(Nc1cc(C(F)(F)F)cnn1)c1csc2c1CCN(C(=O)c1cnc3ccccn13)C2` [Example 173, 6-(imidazo[1,2-a]pyridine-3-carbonyl)-N-(5-(trifluoromethyl)pyridazin-3-yl)-4,5,6,7-tetrahydrothieno[2,3-c]pyridine-3-carboxamide], the inhibitory constant (Ki) on DDR2 and at DDR1 [2] was less than 25 nM in each case. The molecule further showed a half-maximal inhibitory concentration (IC50) against DDR1 [1] of 25 to 50 nM.
As for `CC(C)(C)c1cc(NC(=O)c2csc3c2CCN(C(=O)c2cnn4ccncc24)C3)no1` [Example 175, N-(5-(tert-butyl)isoxazol-3-yl)-6-(pyrazolo[1,5-a]pyrazine-3-carbonyl)-4,5,6,7-tetrahydrothieno[2,3-c]pyridine-3-carboxamide], the Ki on DDR2 and on DDR1 [2] was less than 25 nM each time. Also, on DDR1 [1], the half-maximal inhibitory concentration (IC50) was 50 to 80 nM.
Regarding `O=C(Nc1ccc(Cl)c(C(F)(F)F)c1)c1csc2c1CCN(C(=O)c1cnn3ccncc13)C2` [Example 176, N-(4-chloro-3-(trifluoromethyl)phenyl)-6-(pyrazolo[1,5-a]pyrazine-3-carbonyl)-4,5,6,7-tetrahydrothieno[2,3-c]pyridine-3-carboxamide], the Ki on DDR2 and at DDR1 [2] was less than 25 nM throughout. The same molecule showed a 50% inhibitory concentration (IC50) at DDR1 [1] of 50 to 80 nM.
With `CN1CCN(c2cc(NC(=O)c3csc4c3CCN(C(=O)c3cnc5ccccn35)C4)cc(C(F)(F)F)c2)CC1` [Example 177, 6-(imidazo[1,2-a]pyridine-3-carbonyl)-N-(3-(4-methylpiperazin-1-yl)-5-(trifluoromethyl)phenyl)-4,5,6,7-tetrahydrothieno [2,3-c]pyridine-3-carboxamide], the Ki on DDR2 and on DDR1 [2] was less than 25 nM throughout. Further, the IC50 against DDR1 [1] fell in the range of 50 to 80 nM.
In the case of `CN1CCN(c2cc(NC(=O)c3csc4c3CCN(C(=O)c3cnn5ccncc35)C4)cc(C(F)(F)F)c2)CC1` [Example 178, N-(3-(4-methylpiperazin-1-yl)-5-(trifluoromethyl)phenyl)-6-(pyrazolo[1,5-a]pyrazine-3-carbonyl)-4,5,6,7-tetrahydrothieno[2,3-c]pyridine-3-carboxamide], the Ki on DDR2 and at DDR1 [2] was less than 25 nM in each case. Moreover, at DDR1 [1], the IC50 fell in the range of 50 to 80 nM.
As to `CCC(C)(C)c1cc(NC(=O)c2csc3c2CCN(C(=O)c2cnn4ccncc24)C3)on1` [Example 179, N-(3-(tert-pentyl)isoxazol-5-yl)-6-(pyrazolo[1,5-a]pyrazine-3-carbonyl)-4,5,6,7-tetrahydrothieno[2,3-c]pyridine-3-carboxamide], the Ki at DDR2 and on DDR1 [2] was less than 25 nM each time. At DDR1 [1], this molecule had a 50% inhibitory concentration (IC50) of 50 to 80 nM.
For `O=C(Nc1ccc(CO)c(C(F)(F)F)c1)c1csc2c1CCN(C(=O)c1cnn3ccncc13)C2` [Example 180, N-(4-(hydroxymethyl)-3-(trifluoromethyl)phenyl)-6-(pyrazolo[1,5-a]pyrazine-3-carbonyl)-4,5,6,7-tetrahydrothieno[2,3-c]pyridine-3-carboxamide], the Ki at DDR2 and on DDR1 [2] was less than 25 nM throughout. The IC50 on DDR1 [1] was in the range of 25 to 50 nM.
For the molecule `O=C(Nc1cc(N2CCOCC2)cc(C(F)(F)F)c1)c1csc2c1CCN(C(=O)c1cnc3ccccn13)C2` [Example 181, 6-(imidazo[1,2-a]pyridine-3-carbonyl)-N-(3-morpholino-5-(trifluoromethyl)phenyl)-4,5,6,7-tetrahydrothieno [2,3-c]pyridine-3-carboxamide], the Ki on DDR2 and at DDR1 [2] was less than 25 nM each time. This molecule returned an IC50 against DDR1 [1] of 25 to 50 nM.
Turning to `O=C(Nc1cc(N2CCOCC2)cc(C(F)(F)F)c1)c1csc2c1CCN(C(=O)c1cnn3ccncc13)C2` [Example 182, N-(3-morpholino-5-(trifluoromethyl)phenyl)-6-(pyrazolo[1,5-a]pyrazine-3-carbonyl)-4,5,6,7-tetrahydrothieno[2,3-c]pyridine-3-carboxamide], the inhibitory constant (Ki) at DDR2 and at DDR1 [2] was less than 25 nM throughout. For the same molecule, the concentration for half-maximal inhibition (IC50) against DDR1 [1] was less than 25 nM.
Take `CC(C)Cc1cc(NC(=O)c2csc3c2CCN(C(=O)c2cnn4ccncc24)C3)on1` [Example 183, N-(3-isobutylisoxazol-5-yl)-6-(pyrazolo[1,5-a]pyrazine-3-carbonyl)-4,5,6,7-tetrahydrothieno[2,3-c]pyridine-3-carboxamide]: the inhibition constant (Ki) at DDR2 and on DDR1 [2] was less than 25 nM in each case. Besides, the IC50 against DDR1 [1] lay in the range of 50 to 80 nM.
Take `CC1CN(C(=O)c2cnc3ccccn23)Cc2scc(C(=O)Nc3cccc(C(F)(F)F)c3)c21` (stereo not drawn) [Example 185, 6-(imidazo[1,2-a]pyridine-3-carbonyl)-4-methyl-N-(3-(trifluoromethyl)phenyl)-4,5,6,7-tetrahydrothieno[2,3-c]pyridine-3-carboxamide]: the inhibition constant (Ki) on DDR2 and at DDR1 [2] was less than 25 nM throughout. For the same molecule, the IC50 against DDR1 [1] is less than 25 nM.
On to `O=C(Nc1cncc(OC(F)(F)F)c1)c1csc2c1CCN(C(=O)c1cnc3ccccn13)C2` [Example 186, 6-(imidazo[1,2-a]pyridine-3-carbonyl)-N-(5-(trifluoromethoxy)pyridin-3-yl)-4,5,6,7-tetrahydrothieno[2,3-c]pyridine-3-carboxamide], for which the Ki at DDR2 and at DDR1 [2] was less than 25 nM in each case. In addition, the 50% inhibitory concentration (IC50) against DDR1 [1] was less than 25 nM.
Consider `O=C(Nc1cc(CO)cc(C(F)(F)F)c1)c1csc2c1CCN(C(=O)c1cnn3ccncc13)C2` [Example 187, N-(3-(hydroxymethyl)-5-(trifluoromethyl)phenyl)-6-(pyrazolo[1,5-a]pyrazine-3-carbonyl)-4,5,6,7-tetrahydrothieno[2,3-c]pyridine-3-carboxamide], for which the Ki on DDR2 and at DDR1 [2] was less than 25 nM in each case. Besides, at DDR1 [1], the IC50 was less than 25 nM.
